Measured values: paper PMC11929074, “An in vitro platform for the enzymatic characterization of the rhomboid protease RHBDL4” (The Journal of Biological Chemistry, 2025)
*1 amine or outer side, *2 acyl side, *3 side chain or, on linkers, in order; H or OH if unused. Where a SMILES comes first, the peptide text is derived from it. [ ]: non-standard residue; d: D form. The star is where a group is joined. NH(4-phenylbutyl) = c1ccc(CCCCN*)cc1; X1 = C[C@H](N[*:1])C(=O)C(=O)[*:2]

Tests used:
[1] = molecular target: T1, WT RHBDL4 (human rhomboid protease RHBDL4, recombinant) (human) (UniProt Q8TEB9)
T1 sequence: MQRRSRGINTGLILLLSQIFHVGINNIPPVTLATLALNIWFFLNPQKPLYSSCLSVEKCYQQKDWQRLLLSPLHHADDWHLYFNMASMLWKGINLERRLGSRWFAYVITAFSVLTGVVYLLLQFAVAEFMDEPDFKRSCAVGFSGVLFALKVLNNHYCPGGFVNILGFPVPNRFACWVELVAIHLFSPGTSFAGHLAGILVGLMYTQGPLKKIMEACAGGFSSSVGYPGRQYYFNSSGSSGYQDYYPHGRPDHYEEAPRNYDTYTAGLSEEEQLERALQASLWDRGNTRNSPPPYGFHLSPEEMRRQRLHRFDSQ

[2] = molecular target: T2, recombinant human RHBDL4 (Homo sapiens, UniProt Q8TEB9); assay: Inhibition of RHBDL4 proteolysis of IQ6 (FRET-based in vitro assay); assay type: biochemical; conditions: IQ6 substrate; for inhibition of RHBDL4 proteolytic activity: increasing concentrations, 1 h pre-incubation, 2 h reaction, n = 3
T2 construct: The entire RHBDL4 and RHBDL4-S144A cDNAs were subcloned into the pcDNA3.1 vector; 6xHis (C, cleaved yes); made in house; host or cells: Freestyle 293-F cells (transient transfection, pcDNA3.1-HisA)
T2 sequence (Q8TEB9 1-315): T1 sequence
Excerpt: (§1) B, schematic representation of the peptidyl-α-ketoamide scaffold with peptide sequence P5-P1 at the nonprime side and hydrophobic substituent (R) at the prime side. C, schematic representation of the peptidyl-α-ketoamide inhibitor, compound 1a/1b. D, representative inhibition curve derived from measuring rates of RHBDL4 proteolysis of the fluorescent substrate IQ6 with increasing concentrations of compound 1a. E, same as (D), except inhibition curve was derived from using increasing concentrations of compound 1b. […] Reactions were quenched with 1 keLaemmli buffer and loaded on 12% SDS-PAGE gel. Post-transfer membranes were visualized using a fluorescence Cy3 filter and by Western blotting using an α-His antibody. For (A, D, and E), all inhibitors were pre-incubated with RHBDL4 for 1 h and allowed to react with the IQ6 substrate for 2 h.
(§2) B, representative inhibition curve derived from measuring rates of RHBDL4 proteolysis of the fluorescent substrate IQ6 with increasing concentrations of compound 3. C, same as (B), except inhibition curve was derived from using increasing concentrations of compound 4. […] Reactions were quenched with 1 RLaemmli buffer and loaded on 12% SDS-PAGE gel. Post-transfer membranes were visualized using a fluorescence Cy3 filter and by Western blotting using an α-His antibody. E, saturation curve of RHBDL4 using fluorescent substrate, KSp207. For (B and C), all inhibitors were pre-incubated with RHBDL4 for 1 h and allowed to react with the IQ6 substrate for 2 h. […] I assigned them to the substrate KSp207, which is named on the x-axis and in the inset table.
(§3) The enzymatic assay was performed as previously described (Arutyunova et al., 2014, ([26])). […] The FRET-based cleavage assay was conducted in a fluorescence multiwell plate reader (SynergyMx, BioTek). Upon excitation at 320 nm, the emission intensity at 400 nm was recorded for 2 h at minimal intervals under shaking conditions and plotted using the GraphPad PRISM software. The initial velocities were defined as the slopes of the curve of the generated product as a function of time. The plots of the generated product against the corresponding substrate concentration were fitted with the Michaelis–Menten equation. Catalytic parameters were extrapolated using GraphPad PRISM. […] The samples were desalted using C18 tips (Rainin), eluted in 80% acetonitrile, and dried down in a vacuum centrifuge prior to mass spectrometry analysis.

[3] = molecular target: T2, recombinant human RHBDL4; assay: FRET-based cleavage assay with fluorescent (IQ / KSp207) substrates; assay type: biochemical; conditions: for kcat / pH of highest RHBDL4 protease activity / salt concentration range with satisfactory activity: triplicate; for kcat: average ± S.E.M.; for pH of highest RHBDL4 protease activity: pH range 5 to 10; for salt concentration range with satisfactory activity: salt tested 100 to 300 mM
Method: Figure 2 Kinetic characterization of recombinant human RHBDL4.A, schematic representation of the FRET-based cleavage assay using internally quenched (IQ) substrates. B, saturation curves of RHBDL4 using the fluorescent IQ substrates, IQ6, IQ41, and IQ46. C, pH dependence of the RHBDL4 protease activity using substrates IQ6, IQ41, and IQ46. D, salt concentration dependence of the RHBDL4 protease activity using substrates IQ6, IQ41, and IQ46. All the assays were performed in triplicate, and data points are represented by the average ± S.E.M. TEXT PRINTED IN THE PICTURE: (B) IQ 6: KM(μM) 10.73±2; Kcat(hr^-1) 7.33±0.6 | (B) IQ 41: KM(μM) 5.63±2; Kcat(hr^-1) 2.41±0.6 | (B) IQ 46: KM(μM) 7.19±1; Kcat(hr^-1) 3.62±0.8
(§4) The reaction setup in our FRET assay enabled the direct determination of Michaelis–Menten kinetic parameters Km and kcat for the cleavage of IQ6, IQ41, and IQ46 by RHBDL4. Our fluorescence reading data were converted to μM/h using the standard calibration curve for all three IQ substrates, and the correction factor for the inner filter effect was applied. We confirmed that purified RHBDL4 followed Michaelis–Menten kinetics with KmIQ6=10.73±2μΜ , KmIQ41=5.63±2μΜ , and KmIQ46=7.19±1μΜ and kcatIQ6=7.33±0.6h^−1 , kcatIQ41=2.41±0.6h^−1 , and kcatIQ46=3.62±0.08h^−1 (Figs. 2B and S2B).
Our FRET-based assay is a suitable platform for optimizing conditions that enhance RHBDL4 protease activity. To this end, we selected the optimal pH for RHBDL4 protease activity and performed FRET-based assays with IQ6, IQ41, and IQ46 at a pH range of 5 to 10. […] The optimal salt concentration for the RHBDL4 protease activity was also tested in the range of 100 to 300 mM (Fig. 2D). We conclude that with the IQ6, IQ41, and IQ46 substrates, RHBDL4 had satisfactory activity in a salt concentration range of 100 to 300 mM.
as §2, with “Figure 5 In vitro inhibition of RHBDL4 activity with TMED7-derived peptidyl α-ketoamides.A, schematic representation of the peptidyl-α-ketoamide inhibitor, compound 3 and 4. B,” for “B,”
as §3
All the calculations for Km, Vmax, and Kcat for RHBDL4 and its mutants were performed using GraphPad PRISM.

[4] = test system: WT RHBDL4 (recombinant, purified); assay: TAMRA-FP competition labelling on recombinant RHBDL4; assay type: binding, human; conditions: in-gel Cy3 fluorescence, compared with inactive RHBDL4-S144A control
Excerpt: as §1, §2

[5] = test system: RHBDL4-S144A; assay: FRET-based cleavage by inactive RHBDL4-S144A; assay type: biochemical, human; conditions: pH 8, 37 °C
Excerpt: as §4
Figure 3 Dependence of conserved rhomboid motifs on RHBDL4 protease activity.A, RHBDL4 representation highlighting TM1–6 (in green), the VBM- and UIM-binding motifs (in blue), the conserved rhomboid motifs (WR and Gx3G), and the serine-histidine catalytic dyad (in pink). The table indicates the RHBDL4 region, the conserved rhomboid motifs, and amino acid mutation. The RHBDL4 proteolytic activity. B, size-exclusion chromatography profile of RHBDL4-AR and RHBDL4-Ax3G, being eluted as a monomeric protein. C, coomassie staining and Western blotting using an α-His antibody of concentrated purified RHBDL4-AR and RHBDL4-Ax3G. D, activity profiles of the WT RHBDL4 and mutant RHBDL4-S144A, RHBDL4-AR, and RHBDL4-Ax3G proteins, as measured by cleavage of the fluorescent substrate IQ6. Assay was performed in triplicate (n = 3), and data points are represented by the average ± S.E.M. Statistically significant differences compared to WT RHBDL4 are indicated (pairwise Dunnett's test followed by Bonferroni's post hoc analysis; ∗p < 0.05, n.s., no significance).
The enzymatic assay was performed as previously described (Arutyunova et al., 2014, ([26])). […] The FRET-based cleavage assay was conducted in a fluorescence multiwell plate reader (SynergyMx, BioTek). Upon excitation at 320 nm, the emission intensity at 400 nm was recorded for 2 h at minimal intervals under shaking conditions and plotted using the GraphPad PRISM software. […]

[6] = Michaelis-Menten, 1.5 μM RHBDL4, 37 °C, 2 h, pH 8.0, 150 mM NaCl, 0.1% DDM

Molecule: compound 1b (peptidyl α-ketoamide, Ac-VRHA-CONH-CH(Bn)-CH2OBn) (peptide)
- IC50 of inhibition of RHBDL4 proteolysis of the fluorescent substrate IQ6 (in vitro FRET-based activity assay; 1 h pre-incubation, 2 h reaction) [1]: 6.1 µM

Molecule: Cc1ccc(S(=O)(=O)N[C@@H](Cc2ccccc2)C(=O)CCl)cc1 [N-p-tosyl-L-phenylalanine chloromethyl ketone]
- inhibition of RHBDL4 proteolytic activity [2]: weak inhibition at all concentrations tested

Molecule: O=c1oc(Cl)c(Cl)c2ccccc12 [3,4-dichloroisocoumarin]
- inhibition of RHBDL4 proteolytic activity [2]: inhibited the RHBDL4 proteolytic activity only at higher concentrations (100 μM)

Molecule: Ac-QMESA-4mc [KSp207, TMED7-derived fluorescent substrate Ac-QMESA-4mc]
- cleavage rate/efficiency relative to other substrates ([3]; FRET-based assay): higher enzymatic cleavage efficiency than IQ6
- kcat [3, 6]: 11.05 ± 0.8 h⁻¹
- catalytic rate (cleavage rate) ([3]; approximate, discussion): ~11 h⁻¹

Molecule: Cl.NCCc1ccc(S(=O)(=O)F)cc1 [4-(2-aminoethyl) benzenesulfonyl fluoride hydrochloride]
- inhibition of RHBDL4 proteolytic activity [2]: weak inhibition at all concentrations tested

Molecule: compound 1a (peptidyl α-ketoamide, Ac-VRHA-CONH-CH(Bn)-CH2OBn) (peptide)
- IC50 of inhibition of RHBDL4 proteolysis of the fluorescent substrate IQ6 (in vitro FRET-based activity assay; 1 h pre-incubation, 2 h reaction) [1]: 2.31 µM

Molecule: CC(=O)N[C@H](C(=O)N[C@@H](CCCNC(=N)N)C(=O)NC(Cc1c[nH]cn1)C(=O)N[C@@H](C)C(=O)C(=O)N[C@H](COCc1ccccc1)Cc1ccccc1)C(C)C (stereo partly shown) [compound 1a]
- competition with TAMRA-FP probe (fluorescent signal) [4]: significant reduction of fluorescent signal

Molecule: mca-FLVRGK(dnp) [IQ46, fluorescent internally quenched substrate mca-FLVRGK(dnp)]
- kcat ([3]; 37 °C, pH 8.0): 3.62 ± 0.8 h⁻¹
- kcat [3, 6]: 3.62 ± 0.08 h⁻¹
- pH of highest RHBDL4 protease activity [3]: 8
- salt concentration range with satisfactory activity [3]: 100 to 300 mM
- cleavage by inactive RHBDL4-S144A (increase in fluorescence / activity) [5]: negligible increase in fluorescence

Molecule: CC(=O)N[C@H](C(=O)N[C@@H](CCCNC(=N)N)C(=O)NC(Cc1c[nH]cn1)C(=O)N[C@@H](C)C(=O)C(=O)N[C@H](COCc1ccccc1)Cc1ccccc1)C(C)C (stereo partly shown) [compound 1b]
- competition with TAMRA-FP probe (fluorescent signal) [4]: significant reduction of fluorescent signal

Molecule: CC(=O)N1CCC[C@H]1C(=O)NCC(=O)N[C@@H](Cc1ccccc1)C(=O)N[C@@H](CO)C(=O)N[C@@H](C)C(=O)C(=O)NCCCCc1ccccc1 [compound 2] (Ac-PGFS[X1]-{NH(4-phenylbutyl)})
- IC50 ([2]; inhibitor pre-incubated with RHBDL4 for 1 h, then reacted with IQ6 for 2 h, n = 3, average ± S.E.M.): 3.4 ± 1.2 µM

Molecule: mca-FVTKGK(dnp) [IQ41, fluorescent internally quenched substrate mca-FVTKGK(dnp)]
- kcat ([3]; 37 °C, pH 8.0): 2.41 ± 0.6 h⁻¹
- kcat [3, 6]: 2.41 ± 0.6 h⁻¹
- pH of highest RHBDL4 protease activity [3]: 7
- salt concentration range with satisfactory activity [3]: 100 to 300 mM
- cleavage by inactive RHBDL4-S144A (increase in fluorescence / activity) [5]: negligible increase in fluorescence

Molecule: Ac-PGFSA-{α‑ketoamide CONH‑(CH2)4‑Ph} [compound 2 (IQ6-derived peptidyl α-ketoamide, Ac-PGFSA-CONH-(CH2)4-Ph)]
- IC50 of inhibition of RHBDL4 activity (in vitro FRET-based activity assay) [1]: 3.4 µM
